From patent publication US20250034216A1, “STEREOSELECTIVE COVALENT LIGANDS FOR ONCOGENIC AND IMMUNOLOGICAL PROTEINS” (The Scripps Research Institute, priority 2021, published 2025)

Key:
Assay in all cases: IA-DTB cysteine engagement
Type in all cases: binding
Settings in all cases: 22Rv1 cells, 20 μM probe, 1 h, relative to DMSO
TANC1_C800 = target: T1, TANC1_C800 (Homo sapiens, UniProt Q9C0D5)
T1 construct: endogenous in cells; host or cells: 22Rv1
In short: (§1)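 Cells were treated in situ with electrophilic probes, then lysed, and the lysates (2 mg/mL protein) were labeled with IA-DTB for 1 h at ambient temperature. After reduction, alkylation and trypsin digestion, labeled peptides were streptavidin-enriched, TMT-labeled and fractionated. Engagement ratios are probe vs DMSO reporter intensities, averaged across replicates.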

RETSAT_C547 = target: T2, RETSAT_C547 (Homo sapiens, UniProt Q6NUM9)
T2 construct: endogenous in cells; host or cells: 22Rv1
T2 sequence (Q6NUM9 19-610): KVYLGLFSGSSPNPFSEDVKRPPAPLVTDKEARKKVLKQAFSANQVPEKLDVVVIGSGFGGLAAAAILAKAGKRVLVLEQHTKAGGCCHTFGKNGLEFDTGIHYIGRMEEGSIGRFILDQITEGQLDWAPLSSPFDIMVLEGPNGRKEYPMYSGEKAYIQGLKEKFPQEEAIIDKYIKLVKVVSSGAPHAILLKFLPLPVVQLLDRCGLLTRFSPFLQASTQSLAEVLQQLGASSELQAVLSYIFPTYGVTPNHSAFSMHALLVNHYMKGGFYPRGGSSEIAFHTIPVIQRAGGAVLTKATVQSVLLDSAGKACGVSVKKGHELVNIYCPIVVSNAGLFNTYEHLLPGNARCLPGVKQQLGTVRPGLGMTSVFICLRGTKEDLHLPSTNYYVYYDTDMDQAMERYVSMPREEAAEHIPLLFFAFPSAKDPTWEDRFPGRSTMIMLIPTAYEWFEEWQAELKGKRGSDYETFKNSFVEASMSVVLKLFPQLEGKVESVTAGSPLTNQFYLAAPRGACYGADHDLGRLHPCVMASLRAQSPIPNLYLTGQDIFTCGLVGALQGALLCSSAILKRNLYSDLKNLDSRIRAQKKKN
In short: as §1

LMNA_C570 = target: T3, LMNA_C570 (Homo sapiens, UniProt P02545)
T3 construct: endogenous in cells; host or cells: 22Rv1
T3 sequence (P02545 1-664): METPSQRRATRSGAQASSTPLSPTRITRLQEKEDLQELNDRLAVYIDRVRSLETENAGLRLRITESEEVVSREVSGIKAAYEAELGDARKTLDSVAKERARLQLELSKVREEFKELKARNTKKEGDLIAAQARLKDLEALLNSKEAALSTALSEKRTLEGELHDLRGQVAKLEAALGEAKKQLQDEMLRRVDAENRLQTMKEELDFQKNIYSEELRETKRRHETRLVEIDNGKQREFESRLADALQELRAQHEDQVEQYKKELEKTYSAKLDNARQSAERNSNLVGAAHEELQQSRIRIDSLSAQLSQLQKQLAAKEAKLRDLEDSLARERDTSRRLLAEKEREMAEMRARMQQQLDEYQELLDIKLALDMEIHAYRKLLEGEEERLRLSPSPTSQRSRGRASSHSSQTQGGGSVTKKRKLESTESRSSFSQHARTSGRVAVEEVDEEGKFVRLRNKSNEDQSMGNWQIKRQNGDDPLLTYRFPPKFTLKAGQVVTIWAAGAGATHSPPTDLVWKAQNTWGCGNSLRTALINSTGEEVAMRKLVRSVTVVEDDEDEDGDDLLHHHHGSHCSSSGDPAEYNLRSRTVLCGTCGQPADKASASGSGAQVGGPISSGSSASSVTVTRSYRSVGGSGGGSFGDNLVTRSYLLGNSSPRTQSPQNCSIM
In short: as §1

ZFC3H1_C1778 = target: T4, ZFC3H1_C1778 (Homo sapiens, UniProt O60293)
T4 construct: endogenous in cells; host or cells: 22Rv1
In short: as §1

T1 sequence (Q9C0D5 whole entry): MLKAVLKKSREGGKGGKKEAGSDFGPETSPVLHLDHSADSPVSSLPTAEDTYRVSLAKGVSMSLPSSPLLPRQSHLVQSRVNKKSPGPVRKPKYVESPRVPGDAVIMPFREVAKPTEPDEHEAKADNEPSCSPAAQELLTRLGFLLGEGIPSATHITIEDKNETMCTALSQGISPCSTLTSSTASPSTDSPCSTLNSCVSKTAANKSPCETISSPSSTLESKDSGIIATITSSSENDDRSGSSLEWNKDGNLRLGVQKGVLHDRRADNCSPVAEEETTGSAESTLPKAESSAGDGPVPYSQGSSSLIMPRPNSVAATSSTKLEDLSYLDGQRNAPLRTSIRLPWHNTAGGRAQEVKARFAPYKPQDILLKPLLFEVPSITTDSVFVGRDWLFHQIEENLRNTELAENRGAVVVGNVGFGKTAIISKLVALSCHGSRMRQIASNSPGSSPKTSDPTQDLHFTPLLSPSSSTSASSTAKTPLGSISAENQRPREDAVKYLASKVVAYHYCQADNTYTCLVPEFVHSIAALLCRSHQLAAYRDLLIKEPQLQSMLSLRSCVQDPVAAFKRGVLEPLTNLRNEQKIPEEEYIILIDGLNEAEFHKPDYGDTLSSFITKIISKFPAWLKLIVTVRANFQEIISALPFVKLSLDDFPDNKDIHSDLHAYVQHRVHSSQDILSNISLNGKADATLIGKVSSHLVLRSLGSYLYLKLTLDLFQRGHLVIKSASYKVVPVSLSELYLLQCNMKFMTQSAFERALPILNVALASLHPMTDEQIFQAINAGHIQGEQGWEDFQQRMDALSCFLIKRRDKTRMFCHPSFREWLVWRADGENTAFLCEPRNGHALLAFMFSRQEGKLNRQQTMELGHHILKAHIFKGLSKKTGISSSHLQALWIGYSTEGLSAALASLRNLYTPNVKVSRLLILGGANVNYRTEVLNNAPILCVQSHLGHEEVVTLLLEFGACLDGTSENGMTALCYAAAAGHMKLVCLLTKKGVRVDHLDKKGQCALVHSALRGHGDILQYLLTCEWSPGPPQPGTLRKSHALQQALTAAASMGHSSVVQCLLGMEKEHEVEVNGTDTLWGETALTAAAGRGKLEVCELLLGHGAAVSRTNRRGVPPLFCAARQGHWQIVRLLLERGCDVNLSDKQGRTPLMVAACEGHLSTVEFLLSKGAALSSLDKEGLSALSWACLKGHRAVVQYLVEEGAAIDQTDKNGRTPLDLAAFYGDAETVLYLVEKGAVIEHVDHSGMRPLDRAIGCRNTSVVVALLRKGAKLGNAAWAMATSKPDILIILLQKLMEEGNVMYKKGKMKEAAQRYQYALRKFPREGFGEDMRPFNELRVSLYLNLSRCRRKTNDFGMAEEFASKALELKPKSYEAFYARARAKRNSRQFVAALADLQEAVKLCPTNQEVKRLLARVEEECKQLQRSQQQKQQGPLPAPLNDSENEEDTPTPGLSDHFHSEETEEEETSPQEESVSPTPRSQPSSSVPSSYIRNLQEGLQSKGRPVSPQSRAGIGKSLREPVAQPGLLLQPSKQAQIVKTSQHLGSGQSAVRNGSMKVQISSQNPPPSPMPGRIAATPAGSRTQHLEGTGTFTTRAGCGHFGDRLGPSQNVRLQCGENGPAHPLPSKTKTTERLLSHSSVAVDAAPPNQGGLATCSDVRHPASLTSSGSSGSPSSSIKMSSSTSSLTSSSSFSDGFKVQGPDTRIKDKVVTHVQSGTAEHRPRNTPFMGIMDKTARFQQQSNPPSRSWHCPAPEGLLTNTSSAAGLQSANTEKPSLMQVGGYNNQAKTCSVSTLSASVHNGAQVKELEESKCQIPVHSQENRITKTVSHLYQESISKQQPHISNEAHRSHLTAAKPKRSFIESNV
T4 sequence (O60293 whole entry): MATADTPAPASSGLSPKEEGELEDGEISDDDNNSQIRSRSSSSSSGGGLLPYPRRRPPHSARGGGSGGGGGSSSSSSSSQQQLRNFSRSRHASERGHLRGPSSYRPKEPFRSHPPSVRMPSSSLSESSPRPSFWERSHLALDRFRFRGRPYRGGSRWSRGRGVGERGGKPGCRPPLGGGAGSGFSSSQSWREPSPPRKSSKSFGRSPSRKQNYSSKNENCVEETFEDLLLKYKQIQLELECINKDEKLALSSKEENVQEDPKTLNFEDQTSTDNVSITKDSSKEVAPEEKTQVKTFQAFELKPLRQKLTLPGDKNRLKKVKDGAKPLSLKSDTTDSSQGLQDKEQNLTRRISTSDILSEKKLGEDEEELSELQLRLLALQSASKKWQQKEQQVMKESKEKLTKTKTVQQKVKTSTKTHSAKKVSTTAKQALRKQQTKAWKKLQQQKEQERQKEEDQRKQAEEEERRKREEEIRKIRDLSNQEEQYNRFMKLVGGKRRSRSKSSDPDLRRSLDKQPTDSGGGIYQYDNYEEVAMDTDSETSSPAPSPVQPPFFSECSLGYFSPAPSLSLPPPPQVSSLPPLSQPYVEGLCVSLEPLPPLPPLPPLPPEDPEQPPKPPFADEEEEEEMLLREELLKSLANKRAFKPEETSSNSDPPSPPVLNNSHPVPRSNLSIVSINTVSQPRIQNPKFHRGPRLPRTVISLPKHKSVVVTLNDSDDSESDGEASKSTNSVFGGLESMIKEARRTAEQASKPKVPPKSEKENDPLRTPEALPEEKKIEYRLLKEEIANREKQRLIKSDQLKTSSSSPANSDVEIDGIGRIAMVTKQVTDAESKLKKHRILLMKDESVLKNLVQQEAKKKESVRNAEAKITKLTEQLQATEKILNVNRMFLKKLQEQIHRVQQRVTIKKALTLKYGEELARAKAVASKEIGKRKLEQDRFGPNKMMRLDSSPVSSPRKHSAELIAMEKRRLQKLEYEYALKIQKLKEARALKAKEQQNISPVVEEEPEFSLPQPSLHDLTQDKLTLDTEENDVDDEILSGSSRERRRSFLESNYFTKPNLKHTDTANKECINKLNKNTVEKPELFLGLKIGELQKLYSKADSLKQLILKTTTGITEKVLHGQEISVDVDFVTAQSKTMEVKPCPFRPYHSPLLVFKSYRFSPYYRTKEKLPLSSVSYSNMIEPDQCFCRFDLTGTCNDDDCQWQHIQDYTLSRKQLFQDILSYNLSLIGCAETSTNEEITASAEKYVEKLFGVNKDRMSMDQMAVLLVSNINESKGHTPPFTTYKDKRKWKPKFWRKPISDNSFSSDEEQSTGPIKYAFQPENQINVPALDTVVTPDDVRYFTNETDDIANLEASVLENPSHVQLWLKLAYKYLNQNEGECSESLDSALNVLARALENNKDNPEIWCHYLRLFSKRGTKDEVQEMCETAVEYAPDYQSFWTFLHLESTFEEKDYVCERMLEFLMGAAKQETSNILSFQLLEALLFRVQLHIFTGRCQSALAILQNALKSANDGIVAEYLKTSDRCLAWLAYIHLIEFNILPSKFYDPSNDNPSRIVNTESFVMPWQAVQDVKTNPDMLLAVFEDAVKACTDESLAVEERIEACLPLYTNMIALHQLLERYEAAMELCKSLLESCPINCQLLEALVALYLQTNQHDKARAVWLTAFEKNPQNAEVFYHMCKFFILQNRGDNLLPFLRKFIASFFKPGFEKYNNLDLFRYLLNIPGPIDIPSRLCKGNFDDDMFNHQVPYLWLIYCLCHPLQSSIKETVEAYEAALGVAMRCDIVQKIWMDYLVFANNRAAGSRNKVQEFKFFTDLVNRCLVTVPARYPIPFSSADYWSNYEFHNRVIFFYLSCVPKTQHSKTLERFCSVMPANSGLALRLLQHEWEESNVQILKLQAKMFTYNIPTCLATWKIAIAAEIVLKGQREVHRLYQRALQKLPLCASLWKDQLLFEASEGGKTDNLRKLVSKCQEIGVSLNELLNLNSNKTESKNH

Compound	% engagement TANC1_C800 (TANC1_C800) [%]	% engagement RETSAT_C547 (RETSAT_C547) [%]	% engagement LMNA_C570 (LMNA_C570) [%]	% engagement ZFC3H1_C1778 (ZFC3H1_C1778) [%]
C=CC(=O)N1C[C@H](c2ccc(Br)cc2)[C@H]1C(=O)Nc1cccc2cccnc12 [MY-3A, (2S,3S)-1-acryloyl-3-(4-bromophenyl)-N-(quinolin-8-yl)azetidine-2-carboxamide]	12.5	53.5	75.5	47.75
C=CC(=O)N1C[C@H](c2ccc(Br)cc2)[C@@H]1C(=O)Nc1cccc2cccnc12 [MY-1B, (2R,3S)-1-acryloyl-3-(4-bromophenyl)-N-(quinolin-8-yl)azetidine-2-carboxamide]	3	66.75	70.5	7
C=CC(=O)N1C[C@H](c2ccc(Br)cc2)[C@H]1C(=O)Nc1cccc2cccnc12 [MY-3B, (2S,3S)-1-acryloyl-3-(4-bromophenyl)-N-(quinolin-8-yl)azetidine-2-carboxamide]	83.5	71.25	70.5	−22.75
C=CC(=O)N1C[C@@H](c2ccc(Br)cc2)[C@H]1C(=O)Nc1cccc2cccnc12 [MY-1A, (2S,3R)-1-acryloyl-3-(4-bromophenyl)-N-(quinolin-8-yl)azetidine-2-carboxamide]	−2	80	75	70.75
